The values below come from patent publication US10059689B2, “Substituted heteroaryl compounds and methods of use” (Sunshine Lake Pharma Co., Ltd., priority 2014, dated 2018).

One data set has as its target T1, JAK2 (h) (Homo sapiens, UniProt O60674).
T1 construct: purchased Millipore UK Ltd (contract assay service)
Description: JAK2 (h) kinase assay. It counts as biochemical. As to the method: (§1) The above assay procedure can be used to determine the IC50 for inhibition and/or the inhibition constant, Ki. The IC50 is defined as the concentration of compound required to reduce the enzyme activity by 50% under the condition of the assay. The IC50 value is estimated by preparing a 10 point curve using a ½ log dilution series (for example, a typical curve may be prepared using the following compound concentrations: 3 μM, 1 μM, 0.3 μM, 0.1 μM, 0.03 μM, 0.01 μM, 0.003 μM, 0.001 μM, 0.0003 μM and 0 μM).
JAK2 (h) is incubated with 8 mM MOPS pH 7.0, 0.2 mM EDTA, 100 μM […], 10 mM MgAcetate and [γ-^33P-ATP] (specific activity approx. 500 cpm/pmol, concentration as required). The reaction is initiated by the addition of the MgATP mix. After incubation for 40 minutes at room temperature, the reaction is stopped by the addition of 3% phosphoric acid solution. 10 μL of the reaction is then spotted onto a P30 filtermat and washed three times for 5 minutes in 75 mM phosphoric acid and once in methanol prior to drying and scintillation counting.
(§2) The kinase assays described herein were performed at Millipore UK Ltd, Dundee Technology Park, Dundee DD2 1SW, UK.

Data set [1] in a line: Pharmacokinetics after intravenous and oral administration in rats. It counts as in vivo. The following applies: for clearance (CL) / AUC(0-t) / half-life / Vd: iv dosing, 1 mg/kg; for F: oral bioavailability; for AUC(0-t) / half-life / Vd: rat, plasma; for Vd: read-out: Vss.
A further data set deals with T2, JAK1 (h) (Homo sapiens, UniProt P23458).
T2 construct: purchased Millipore UK Ltd (contract assay service)
Description: JAK1 (h) kinase assay. It counts as biochemical. How it is done: as §1
JAK1 (h) is incubated with 20 mM Tris/HCl pH 7.5, 0.2 mM EDTA, 500 μM GEEPLYWSFPAKKK, 10 mM MgAcetate and [γ-^33P-ATP] (specific activity approx. 500 cpm/pmol, concentration as required). The reaction is initiated by the addition of the MgATP mix. After incubation for 40 minutes at room temperature, the reaction is stopped by the addition of 3% phosphoric acid solution. 10 μL of the reaction is then spotted onto a P30 filtermat and washed three times for 5 minutes in 75 mM phosphoric acid and once in methanol prior to drying and scintillation counting.
as §2

T2 sequence (P23458 whole entry): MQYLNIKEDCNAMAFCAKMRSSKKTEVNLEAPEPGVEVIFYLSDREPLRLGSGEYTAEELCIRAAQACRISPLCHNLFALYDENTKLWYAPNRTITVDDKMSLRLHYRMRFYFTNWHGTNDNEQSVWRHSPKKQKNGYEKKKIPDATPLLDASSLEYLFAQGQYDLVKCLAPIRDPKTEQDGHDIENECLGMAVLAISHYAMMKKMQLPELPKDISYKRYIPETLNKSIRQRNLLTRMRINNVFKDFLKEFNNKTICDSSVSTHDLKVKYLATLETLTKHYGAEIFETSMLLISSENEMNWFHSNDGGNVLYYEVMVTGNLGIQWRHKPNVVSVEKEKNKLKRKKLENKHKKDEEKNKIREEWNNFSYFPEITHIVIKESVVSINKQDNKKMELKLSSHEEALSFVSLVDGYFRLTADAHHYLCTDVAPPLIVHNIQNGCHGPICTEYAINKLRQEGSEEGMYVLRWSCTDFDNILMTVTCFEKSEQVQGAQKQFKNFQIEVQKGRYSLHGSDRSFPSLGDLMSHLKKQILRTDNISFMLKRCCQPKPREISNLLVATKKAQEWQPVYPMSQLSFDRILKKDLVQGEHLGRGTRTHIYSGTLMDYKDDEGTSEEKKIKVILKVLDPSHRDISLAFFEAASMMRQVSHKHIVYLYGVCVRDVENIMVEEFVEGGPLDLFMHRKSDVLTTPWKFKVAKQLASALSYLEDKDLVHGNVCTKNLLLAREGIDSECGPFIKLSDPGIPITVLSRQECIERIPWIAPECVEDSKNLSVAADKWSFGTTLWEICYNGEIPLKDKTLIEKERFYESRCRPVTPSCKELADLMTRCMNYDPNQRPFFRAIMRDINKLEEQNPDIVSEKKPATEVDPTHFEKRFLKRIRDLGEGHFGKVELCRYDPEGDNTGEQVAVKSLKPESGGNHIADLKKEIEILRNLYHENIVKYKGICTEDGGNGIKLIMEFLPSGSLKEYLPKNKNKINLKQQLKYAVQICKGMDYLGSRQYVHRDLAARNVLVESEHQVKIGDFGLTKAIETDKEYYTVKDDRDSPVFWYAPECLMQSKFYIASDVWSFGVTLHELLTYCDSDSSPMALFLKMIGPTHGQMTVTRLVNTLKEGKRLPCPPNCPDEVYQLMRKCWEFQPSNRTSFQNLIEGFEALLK
T1 sequence (O60674 whole entry): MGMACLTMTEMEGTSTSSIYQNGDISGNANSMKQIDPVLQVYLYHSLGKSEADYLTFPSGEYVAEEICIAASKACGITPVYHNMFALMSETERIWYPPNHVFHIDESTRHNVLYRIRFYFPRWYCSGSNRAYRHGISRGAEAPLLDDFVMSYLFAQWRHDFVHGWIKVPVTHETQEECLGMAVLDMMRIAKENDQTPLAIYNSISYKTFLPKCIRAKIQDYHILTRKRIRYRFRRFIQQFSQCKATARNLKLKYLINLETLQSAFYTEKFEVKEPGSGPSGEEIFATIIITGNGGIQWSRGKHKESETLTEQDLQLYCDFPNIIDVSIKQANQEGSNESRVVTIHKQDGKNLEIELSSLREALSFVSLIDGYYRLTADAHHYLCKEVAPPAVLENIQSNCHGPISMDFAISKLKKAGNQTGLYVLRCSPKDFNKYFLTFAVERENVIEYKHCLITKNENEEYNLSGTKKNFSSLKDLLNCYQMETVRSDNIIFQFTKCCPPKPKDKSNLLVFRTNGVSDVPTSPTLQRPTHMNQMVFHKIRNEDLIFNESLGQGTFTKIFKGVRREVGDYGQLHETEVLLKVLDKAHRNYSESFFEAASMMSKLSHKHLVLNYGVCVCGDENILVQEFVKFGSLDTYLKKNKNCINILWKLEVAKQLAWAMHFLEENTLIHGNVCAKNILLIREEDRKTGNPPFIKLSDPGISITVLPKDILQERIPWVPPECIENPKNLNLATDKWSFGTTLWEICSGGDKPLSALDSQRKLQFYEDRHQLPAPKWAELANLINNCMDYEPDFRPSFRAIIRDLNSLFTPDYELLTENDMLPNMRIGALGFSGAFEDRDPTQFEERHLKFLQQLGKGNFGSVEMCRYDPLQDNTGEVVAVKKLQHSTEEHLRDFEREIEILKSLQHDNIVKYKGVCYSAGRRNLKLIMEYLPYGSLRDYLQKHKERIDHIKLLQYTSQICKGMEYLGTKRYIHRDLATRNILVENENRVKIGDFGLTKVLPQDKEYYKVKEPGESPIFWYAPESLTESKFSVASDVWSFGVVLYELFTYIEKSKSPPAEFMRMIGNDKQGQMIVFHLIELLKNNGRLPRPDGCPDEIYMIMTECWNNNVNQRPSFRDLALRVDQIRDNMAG

What is called IC50 is the midpoint of a concentration-inhibition curve. The term AUC(0-t) denotes the area under the concentration-time curve up to a stated or last time point. Low values mean low exposure, high ones high exposure. The half-life is the time in which the quantity being followed falls by half. Low values mean rapid decline, high ones slow decline. For the compound `Cc1nn(C)cc1Nc1ncc(Cl)c(NC2CCN(c3ccc(C#N)cn3)CC2)n1` [Ex. 10, 6-(4-((5-chloro-2-((1,3-dimethyl-1H-pyrazol-4-yl)amino)pyrimidin-4-yl)amino)piperidin-1-yl)nicotinonitrile], the IC50 against JAK2 (h) was 1 nM. Also, in data set [1], the “clearance (CL)” value came out at 9.67 mL/min/kg, the F came to 75.3%, the AUC(0-t) is 1740 ng·h/mL and the half-life is 43.2 min. Besides, in data set [1], the Vd was 0.63 L/kg. Moreover, at JAK1 (h), the IC50 was less than 0.3 nM.
`Cc1c2ccc(Nc3ncc(Cl)c(NC4CCN(c5ccc(C#N)nn5)CC4)n3)cc2nn1C` [Ex. 12, 6-(4-((5-chloro-2-((2,3-dimethyl-2H-indazol-6-yl)amino)pyrimidin-4-yl)amino)piperidin-1-yl)pyridazine-3-carbonitrile] showed an IC50 at JAK2 (h) of less than 0.3 nM. In data set [1], the “clearance (CL)” value was determined as 11.3 mL/min/kg, the F came out at 39.2%, the AUC(0-t) is 1480 ng·h/mL and the half-life was 29.4 min. In addition, the Vd in data set [1] turned out to be 0.5 L/kg. On JAK1 (h), this compound yielded an IC50 of less than 0.3 nM.
Turning to `CN(c1nc(Nc2cnn(C)c2)ncc1Cl)C1CCN(c2ccc(C#N)cn2)CC1` [Ex. 5, 6-(4-((5-chloro-2-((1-methyl-1H-pyrazol-4-yl)amino)pyrimidin-4-yl) (methyl)amino)piperidin-1-yl)nicotinonitrile], the IC50 against JAK2 (h) is 17 nM. Besides, in data set [1], the “clearance (CL)” value came to 29.7 mL/min/kg, the F is 182.46%, the area under the curve AUC(0-t) is 572 ng·h/mL and the half-life is 30.6 min. In data set [1], the Vd is 0.67 L/kg. Besides, on JAK1 (h), half-maximal inhibition (IC50) was put at 0.8 nM.
At JAK2 (h), `Cc1c2ccc(Nc3ncc(Cl)c(NC4CCN(c5ccc(C#N)cn5)CC4)n3)cc2nn1C` [Ex. 4] displayed an IC50 of 2 nM. Further, in data set [1], the “clearance (CL)” value is 7.17 mL/min/kg, the F is recorded as 78.76%, the AUC(0-t) was 2340 ng·h/mL and the half-life was 103 min. Also, in data set [1], the Vd stood at 0.72 L/kg. Besides, at JAK1 (h), inhibition was half-maximal at 0.3 nM (IC50).
At JAK2 (h), `Cc1nn(C)cc1Nc1ncc(Cl)c(NC2CCN(c3ccc(C#N)nn3)CC2)n1` [Ex. 11, 6-(4-((5-chloro-2-((1,3-dimethyl-1H-pyrazol-4-yl)amino)pyrimidin-4-yl)amino)piperidin-1-yl)pyridazine-3-carbonitrile] registered an IC50 of 2 nM. In data set [1], the “clearance (CL)” value worked out at 17.7 mL/min/kg, the F was 61.8%, the area under the curve AUC(0-t) came to 931 ng·h/mL and the half-life is 27 min. Moreover, in data set [1], the Vd is 0.62 L/kg. Besides, the IC50 at JAK1 (h) came to 0.4 nM.
In the case of `Cn1cc(Nc2ncc(Cl)c(NC3CCN(c4ccc(C#N)cn4)CC3)n2)cn1` [Ex. 1, 6-(4-((5-chloro-2-((1-methyl-1H-pyrazol-4-yl)amino)pyrimidin-4-yl)amino)piperidin-1-yl)nicotinonitrile], on JAK2 (h), the IC50 came out at 0.5 nM. Further, in data set [1], the “clearance (CL)” value worked out at 3.83 mL/min/kg, the F was 136.8%, the AUC(0-t) came out at 4660 ng·h/mL and the half-life is 58.8 min. In addition, the Vd in data set [1] came to 0.31 L/kg. The half-inhibitory concentration (IC50) against JAK1 (h) is less than 0.3 nM.
Turning to `Cc1cc(Nc2ncc(Cl)c(NC3CCN(c4ccc(C#N)nn4)CC3)n2)nn1C` [Ex. 13, 6-(4-((5-chloro-2-((1,5-dimethyl-1H-pyrazol-3-yl)amino)pyrimidin-4-yl)amino)piperidin-1-yl)pyridazine-3-carbonitrile], the results for the IC50 against JAK2 (h) and at JAK1 (h) were 1 nM and 0.4 nM, respectively.
